Laboratory results published in patent publication US20110139152A1, “ANTIBIOTIC MICROPARTICLES FOR INHALATION” (Chiesi Farmaceutici S.p.A., priority 2009, published 2011).

Experiment: Aerosol performance by laser diffraction (Spraytec with inhalation cell, Monodose inhaler)
Format: physicochemical
Conditions: mean
Method: The aerosol performance of the microparticles of the present invention were evaluated by laser diffraction (Spraytec, Malvern Instruments, Worcestershire, UK) equipped with an inhalation cell attachment. Approximate 30 mg (or 15 mg in later tests) of each powder was loaded into size 3 HPMC capsules (Capsugel, Peapack, N.J., USA). Before the aerosolization, a stainless steel pin punched each end of the capsule allowing powders to be released from the capsule by providing two holes with diameter about 1 mm. Each capsule was aerosolized using a Monodose inhaler device (Miat S.p.A., Milan, Italy) at flow rate of 60 and 90 L/min. All measurements were made on four replicates at room temperature (20° C., 50% RH). Each measurement was performed over 4 s.
The device retention was calculated as a percentage of powder left both in the capsules and in the inhalers to the total load. The fine particle fraction (FPF) was defined as the amount of drug particle smaller than 5.4 μm as a percentage of the powder emitted from inhaler device.
It should be noted that all powders were tested after removing large agglomerates by gently passing the powders through a 250 μm sieve.
To further improve both the emitted dose and FPF of the mechano-fused microparticles with lower contents of MgSt, e.g. between 0.5% and 1%, loose agglomeration was applied by vibrating powders between two sieves of 180 and 710 μm.
Prior to this sieving process, powders were tumbled to encourage formation of loose agglomerates.

[1] = 90 L/min, loosely agglomerated drug powders (tumbled, vibrated between sieves of 180 and 710 μm) versus unsieved

- <5.4 μm (%) (fine particle fraction, FPF) (90 L/min air flow, Monodose inhaler, percentage of the powder emitted, powders passed through 250 μm sieve): 32.58%
- <5.4 μm (%) (fine particle fraction, FPF) (90 L/min air flow, Monodose inhaler, percentage of the powder emitted, powders passed through 250 μm sieve, listed as untreated drug powder): around 30%
- Emitted dose (%) (90 L/min air flow, Monodose inhaler, size 3 HPMC capsules, powders passed through 250 μm sieve): 70.77%
- <5.4 μm (%) (fine particle fraction, FPF) [1]: 32.58%
- Emitted dose (%) [1]: 70.77%
Compound: NC[C@H]1O[C@H](O[C@H]2[C@H](O)[C@@H](O[C@H]3O[C@H](CO)[C@@H](O)[C@H](N)[C@H]3O)[C@H](N)C[C@@H]2N)[C@H](N)C[C@@H]1O [TMC-raw, (2S,3R,4S,5S,6R)-4-amino-2-{[(1S,2S,3R,4S,6R)-4,6-diamino-3-{[(2R,3R,5S,6R)-3-amino-6-(aminomethyl)-5-hydroxyoxan-2-yl]oxy}-2-hydroxycyclohexyl]oxy}-6-(hydroxymethyl)oxane-3,5-diol]
